Molecular target: T1, PIk1 (Homo sapiens, UniProt P53350)
T1 construct: His tag (histidine tag) (N); made in house; host or cells: SF9 insect cells
Assay: PIk1 kinase activity inhibition assay (33P incorporation into alpha casein, flash plates)
Assay type: biochemical
Conditions: recombinant N-terminally histidine-tagged PIk1, alpha casein as substrate, 100 nM Li-ATP, 80 minutes at 30°C
Method: The inhibition of PIk1 kinase activity can be measured using recombinant PIk1 protein expressed as an N-terminally histidine-tagged protein in SF9 insect cells and alpha casein as substrate. The PIk1 assay is run in 96 well plates by incubating 50 to 100 ng per well recombinant PIk1, 500 ng per well alpha casein (Sigma, # C-6780) as substrate, 10 µl of compound of invention (test compounds were dissolved as 20 mM solutions in dimethylsulfoxide (DMSO) and subsequently diluted), and 100 nM Li-ATP (including ^33P-ATP) in 100 µl of reaction buffer ([…], pH 7.5; 3 mM MgCl2; 3 mM MnCl2; 3 µM Na-Orthovanadat; 1 mM DTT; 1 µg/ml PEG 8000) for 80 minutes at 30°C. The reactions are terminated by adding 100 µl stopping buffer (2% H3PO4 for 5 minutes) and are washed 3 times with washing solution (0,9% NaCl). Determining ^33P incorporated into the protein substrate alpha casein, the detection is based on the adhesion of the phosphorylated protein to the surface of scintillator-coated flash plates (Perkin Elmer, USA; # SMP-200). Phosphorylation of alpha casein is measured by counting the radioactivity bound to the plate for 60 sec. using a plate reader (Perkin Elmer, USA; Wallac Microbeta). By this method, the IC50 value of the PIk1 inhibition is determined as described above. […]

T1 sequence (P53350 whole entry): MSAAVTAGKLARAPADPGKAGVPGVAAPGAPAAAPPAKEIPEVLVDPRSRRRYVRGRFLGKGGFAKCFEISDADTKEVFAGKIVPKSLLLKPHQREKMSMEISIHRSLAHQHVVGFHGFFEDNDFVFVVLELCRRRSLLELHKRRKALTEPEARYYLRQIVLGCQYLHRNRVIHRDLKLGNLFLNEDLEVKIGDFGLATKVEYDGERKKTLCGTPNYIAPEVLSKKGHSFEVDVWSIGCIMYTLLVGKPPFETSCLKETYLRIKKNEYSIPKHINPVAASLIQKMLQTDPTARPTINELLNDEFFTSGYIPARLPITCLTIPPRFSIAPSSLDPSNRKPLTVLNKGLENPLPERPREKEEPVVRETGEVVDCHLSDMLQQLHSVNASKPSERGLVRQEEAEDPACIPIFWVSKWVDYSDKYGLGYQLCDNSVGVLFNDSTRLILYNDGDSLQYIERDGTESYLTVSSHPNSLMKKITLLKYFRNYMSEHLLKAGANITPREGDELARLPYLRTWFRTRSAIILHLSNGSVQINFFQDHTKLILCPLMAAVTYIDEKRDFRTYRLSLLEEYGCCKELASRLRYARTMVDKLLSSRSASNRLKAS

Row | IC50 | Structure (SMILES)
1 | < 1 µM | COc1cc(C(=O)NC2CCN(C)CC2)ccc1Nc1ncc2c(cc(OCc3ccccc3)c(=O)n2C)n1 [Example 1, 4-{[7-(benzyloxy)-5-methyl-6-oxo-5,6-dihydropyrido[3,2-d]pyrimidin-2-yl]amino}-3-methoxy-N-(1-methylpiperidin-4-yl)benzamide]
2 | < 0.1 µM | C/C=C/c1c(OC)c(=O)n(C)c2cnc(Nc3ccc(C(=O)NC4CCN(C)CC4)cc3OC)nc12 [Example 2, 3-methoxy-4-({7-methoxy-5-methyl-6-oxo-8-[(E)-prop-1-en-1-yl]-5,6-dihydropyrido[3,2-d]pyrimidin-2-yl}amino)-N-(1-methylpiperidin-4-yl)benzamide]
3 | < 0.1 µM | COc1cc(C(=O)NC2CCN(C)CC2)ccc1Nc1ncc2c(n1)c(-c1ccccc1)c(OC)c(=O)n2C [Example 3, 3-methoxy-4-[(7-methoxy-5-methyl-6-oxo-8-phenyl-5,6-dihydropyrido[3,2-d]pyrimidin-2-yl)amino]-N-(1-methylpiperidin-4-yl)benzamide]
4 | < 0.01 µM | COc1cc(C(=O)NC2CCN(C)CC2)ccc1Nc1ncc2c(n1)c(-c1ccsc1)c(OC)c(=O)n2C [Example 4, 3-methoxy-4-{[7-methoxy-5-methyl-6-oxo-8-(3-thienyl)-5,6-dihydro-pyrido[3,2-d]pyrimidin-2-yl]amino}-N-(1-methylpiperidin-4-yl)benzamide]
5 | < 0.1 µM | COc1cc(C(=O)NC2CCN(C)CC2)ccc1Nc1ncc2c(n1)c(-c1cccs1)c(OC)c(=O)n2C [Example 5, 3-methoxy-4-{[7-methoxy-5-methyl-6-oxo-8-(2-thienyl)-5,6-dihydro-pyrido[3,2-d]pyrimidin-2-yl]amino}-N-(1-methylpiperidin-4-yl)benzamide]
6 | < 0.1 µM | COc1cc(C(=O)NC2CCN(C)CC2)ccc1Nc1ncc2c(n1)c(C1=CCCC1)c(OC)c(=O)n2C [Example 6, 4-[(8-cyclopent-1-en-1-yl-7-methoxy-5-methyl-6-oxo-5,6-dihydropyrido[3,2-d]pyrimidin-2-yl)amino]-3-methoxy-N-(1-methylpiperidin-4-yl)benzamide]
7 | < 0.1 µM | COc1cc(C(=O)NC2CCN(C)CC2)ccc1Nc1ncc2c(cc(OCC3CC3)c(=O)n2C)n1 [Example 7, 4-{[7-(cyclopropylmethoxy)-5-methyl-6-oxo-5,6-dihydropyrido[3,2-d]pyrimidin-2-yl]amino}-3-methoxy-N-(1-methylpiperidin-4-yl)benzamide]
8 | < 0.1 µM | COc1cc(C(=O)NC2CCN(C)CC2)ccc1Nc1ncc2c(cc(OCC3CCCC3)c(=O)n2C)n1 [Example 8, 4-{[7-(cyclopentylmethoxy)-5-methyl-6-oxo-5,6-dihydropyrido[3,2-d]pyrimidin-2-yl]amino}-3-methoxy-N-(1-methylpiperidin-4-yl)benzamide]
9 | < 1 µM | COc1cc(C(=O)NC2CCN(C)CC2)ccc1Nc1ncc2c(cc(OCC3CCCCC3)c(=O)n2C)n1 [Example 9, 4-{[7-(cyclohexylmethoxy)-5-methyl-6-oxo-5,6-dihydropyrido[3,2-d]pyrimidin-2-yl]amino}-3-methoxy-N-(1-methylpiperidin-4-yl)benzamide]
10 | < 0.1 µM | COc1cc(C(=O)NC2CCN(C)CC2)ccc1Nc1ncc2c(n1)c(-c1ccco1)c(OC)c(=O)n2C [Example 10, 4-{[8-(2-furyl)-7-methoxy-5-methyl-6-oxo-5,6-dihydropyrido[3,2-d]pyrimidin-2-yl]amino}-3-methoxy-N-(1-methylpiperidin-4-yl)benzamide]
11 | < 0.1 µM | COc1cc(C(=O)NC2CCN(C)CC2)ccc1Nc1ncc2c(n1)c(-c1ccoc1)c(OC)c(=O)n2C [Example 11, 4-{[8-(3-furyl)-7-methoxy-5-methyl-6-oxo-5,6-dihydropyrido[3,2-d]pyrimidin-2-yl]amino}-3-methoxy-N-(1-methylpiperidin-4-yl)benzamide]
12 | < 1 µM | COc1cc(C(=O)NC2CCN(C)CC2)ccc1Nc1ncc2c(cc(OCC3CCOC3)c(=O)n2C)n1 (centres unmarked) [Example 12, 3-methoxy-4-{[5-methyl-6-oxo-7-(tetrahydrofuran-3-ylmethoxy)-5,6-dihydropyrido[3,2-d]pyrimidin-2-yl]amino}-N-(1-methylpiperidin-4-yl)benzamide]
13 | < 1 µM | COc1cc(C(=O)NC2CCN(C)CC2)ccc1Nc1ncc2c(cc(OCC3CCCO3)c(=O)n2C)n1 (centres unmarked) [Example 13, 3-methoxy-4-{[5-methyl-6-oxo-7-(tetrahydrofuran-2-ylmethoxy)-5,6-dihydropyrido[3,2-d]pyrimidin-2-yl]amino}-N-(1-methylpiperidin-4-yl)benzamide]
14 | < 0.1 µM | COc1cc(C(=O)NC2CCN(C)CC2)ccc1Nc1ncc2c(n1)c(C1CCCC1)c(OC)c(=O)n2C [Example 14, 4-[(8-cyclopentyl-7-methoxy-5-methyl-6-oxo-5,6-dihydropyrido[3,2-d]pyrimidin-2-yl)amino]-3-methoxy-N-(1-methylpiperidin-4-yl)benzamide]
15 | < 1 µM | COc1cc(C(=O)NC2CCN(C)CC2)ccc1Nc1ncc2c(n1)c(C1=C(C)CCC1)c(OC)c(=O)n2C [Example 15, 3-methoxy-4-{[7-methoxy-5-methyl-8-(2-methylcyclopent-1-en-1-yl)-6-oxo-5,6-dihydropyrido[3,2-d]pyrimidin-2-yl]amino}-N-(1-methylpiperidin-4-yl)benzamide]
16 | < 1 µM | COc1cc(C(=O)NC2CCN(C)CC2)ccc1Nc1ncc2c(n1)c(Cl)c(OC)c(=O)n2C [Example 16, 4-[(8-chloro-7-methoxy-5-methyl-6-oxo-5,6-dihydropyrido[3,2-d]pyrimidin-2-yl)amino]-3-methoxy-N-(1-methylpiperidin-4-yl)benzamide]
17 | < 1 µM | COc1cc(C(=O)NC2CCN(C)CC2)ccc1Nc1ncc2c(n1)c(C1=C(C)CCCC1)c(OC)c(=O)n2C [Example 17, 3-methoxy-4-{[7-methoxy-5-methyl-8-(2-methylcyclohex-1-en-1-yl)-6-oxo-5,6-dihydropyrido[3,2-d]pyrimidin-2-yl]amino}-N-(1-methylpiperidin-4-yl)benzamide]
18 | < 0.1 µM | C/C=C/c1c(OCC)c(=O)n(C)c2cnc(Nc3ccc(C(=O)NC4CCN(C)CC4)cc3OC)nc12 [Example 18, 4-({7-ethoxy-5-methyl-6-oxo-8-[(1E)-prop-1-en-1-yl]-5,6-dihydropyrido[3,2-d]pyrimidin-2-yl}amino)-3-methoxy-N-(1-methylpiperidin-4-yl)benzamide]
19 | < 0.1 µM | COc1cc(C(=O)NC2CCN(C)CC2)ccc1Nc1ncc2c(n1)c(C1CC1)c(OC)c(=O)n2C [Example 19, 4-[(8-cyclopropyl-7-methoxy-5-methyl-6-oxo-5,6-dihydropyrido[3,2-d]pyrimidin-2-yl)amino]-3-methoxy-N-(1-methylpiperidin-4-yl)benzamide]
20 | < 0.1 µM | C/C=C/c1c(OC)c(=O)n(C)c2cnc(Nc3ccc(C(=O)NCc4cncn4C)cc3OC)nc12 [Example 20, 3-methoxy-4-({7-methoxy-5-methyl-6-oxo-8-[(1E)-prop-1-en-1-yl]-5,6-dihydropyrido[3,2-d]pyrimidin-2-yl}amino)-N-[(1-methyl-1H-imidazol-5-yl)methyl]benzamide]
21 | < 1 µM | COc1cc(C(=O)NC2CCN(C)CC2)ccc1Nc1ncc2c(cc(OC)c(=O)n2C)n1 [Example 21, 3-methoxy-4-[(7-methoxy-5-methyl-6-oxo-5,6-dihydropyrido[3,2-d]pyrimidin-2-yl)amino]-N-(1-methylpiperidin-4-yl)benzamide]
22 | < 0.1 µM | C=C(C)c1c(OC)c(=O)n(C)c2cnc(Nc3ccc(C(=O)NC4CCN(C)CC4)cc3OC)nc12 [Example 22, 4-[(8-isopropenyl-7-methoxy-5-methyl-6-oxo-5,6-dihydropyrido[3,2-d]pyrimidin-2-yl)amino]-3-methoxy-N-(1-methylpiperidin-4-yl)benzamide]
23 | < 1 µM | COc1cc(C(=O)NC2CCN(C)CC2)ccc1Nc1ncc2c(n1)c(CC1=CCOC1)c(OC)c(=O)n2C [Example 23, 4-{[8-(2,5-dihydrofuran-3-ylmethyl)-7-methoxy-5-methyl-6-oxo-5,6-dihydropyrido[3,2-d]pyrimidin-2-yl]amino}-3-methoxy-N-(1-methylpiperidin-4-yl)benzamide]
24 | < 1 µM | COc1cc(C(=O)NC2CCN(C)CC2)ccc1Nc1ncc2c(n1)c(C(C)C)c(OC)c(=O)n2C [Example 24, 4-[(8-isopropyl-7-methoxy-5-methyl-6-oxo-5,6-dihydropyrido[3,2-d]pyrimidin-2-yl)amino]-3-methoxy-N-(1-methylpiperidin-4-yl)benzamide]
25 | < 1 µM | C/C=C/c1c(OC)c(=O)n(C)c2cnc(Nc3ccc(C(=O)NC4CCN(CC)CC4)cc3OC)nc12 [Example 25, N-(1-ethylpiperidin-4-yl)-3-methoxy-4-({7-methoxy-5-methyl-6-oxo-8-[(1E)-prop-1-en-1-yl]-5,6-dihydropyrido[3,2-d]pyrimidin-2-yl}amino)benzamide]
26 | < 0.1 µM | C/C=C/c1c(OC)c(=O)n(C)c2cnc(Nc3ccc(C(=O)NCC4CCN(C)CC4)cc3OC)nc12 [Example 26, 3-methoxy-4-({7-methoxy-5-methyl-6-oxo-8-[(1E)-prop-1-en-1-yl]-5,6-dihydropyrido[3,2-d]pyrimidin-2-yl}amino)-N-[(1-methylpiperidin-4-yl)methyl]benzamide]

— patent EP2100894A1, “Pyridopyrimidines used as Plk1 (polo-like kinase) inhibitors” (4SC AG, priority 2008, dated 2009)
